Experimental data from ChEMBL document CHEMBL4177553, “Rapid screening the potential mechanism-based inhibitors of CYP3A4 from Tripterygium wilfordi based on computer approaches combined with in vitro bioassay” (Bioorg Med Chem, 2017).

Tests used:
Cytochrome P450 2E1 = Cytochrome P450 2E1 (Homo sapiens, UniProt P05181); experiment: Inhibition of CYP2E1 in human liver microsomes assessed as reduction in formation of chlorzoxazone to 6-Hydroxy chlorzoxazone at 50 uM preincubated for 30 mins followed by substrate addition measured after 15 mins in presence of NADPH by UPLC-MS analysis; assay type: ADME; settings: 0.25 h
Sequence of Cytochrome P450 2E1 (P05181 whole entry): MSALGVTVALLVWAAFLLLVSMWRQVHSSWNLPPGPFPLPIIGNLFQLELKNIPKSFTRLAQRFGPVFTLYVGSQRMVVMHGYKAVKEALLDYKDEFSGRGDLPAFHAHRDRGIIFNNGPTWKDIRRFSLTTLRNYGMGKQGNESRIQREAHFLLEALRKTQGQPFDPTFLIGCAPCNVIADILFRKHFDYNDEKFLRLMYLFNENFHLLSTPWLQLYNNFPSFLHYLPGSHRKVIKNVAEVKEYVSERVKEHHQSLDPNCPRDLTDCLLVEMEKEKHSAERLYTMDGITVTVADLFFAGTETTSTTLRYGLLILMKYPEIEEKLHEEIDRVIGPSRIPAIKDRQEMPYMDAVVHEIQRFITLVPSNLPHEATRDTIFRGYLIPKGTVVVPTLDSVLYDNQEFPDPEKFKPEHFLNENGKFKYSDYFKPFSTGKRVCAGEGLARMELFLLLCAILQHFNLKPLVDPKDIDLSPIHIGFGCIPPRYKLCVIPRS

Cytochrome P450 2D6 = Cytochrome P450 2D6 (Homo sapiens, UniProt P10635); experiment: Inhibition of CYP2D6 in human liver microsomes assessed as reduction in formation of dextromethorphan to dextrorphan at 50 uM preincubated for 30 mins followed by substrate addition measured after 15 mins in presence of NADPH by UPLC-MS analysis; assay type: ADME; settings: 0.25 h
Sequence of Cytochrome P450 2D6 (P10635 whole entry): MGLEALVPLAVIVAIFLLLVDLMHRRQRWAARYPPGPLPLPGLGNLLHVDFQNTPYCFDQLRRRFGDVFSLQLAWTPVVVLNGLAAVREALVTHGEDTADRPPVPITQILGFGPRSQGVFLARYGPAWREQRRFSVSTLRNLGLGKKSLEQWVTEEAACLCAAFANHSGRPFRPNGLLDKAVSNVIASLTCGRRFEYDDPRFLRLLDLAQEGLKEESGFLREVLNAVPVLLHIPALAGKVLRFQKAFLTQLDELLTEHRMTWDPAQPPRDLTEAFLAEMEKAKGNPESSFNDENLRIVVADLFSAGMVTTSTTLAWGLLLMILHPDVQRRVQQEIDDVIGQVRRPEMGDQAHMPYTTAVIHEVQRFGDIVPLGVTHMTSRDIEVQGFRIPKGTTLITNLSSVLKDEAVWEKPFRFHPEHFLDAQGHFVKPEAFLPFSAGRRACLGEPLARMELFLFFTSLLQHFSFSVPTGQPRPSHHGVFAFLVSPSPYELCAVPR

Cytochrome P450 3A4 [1] = biological target: T1, Cytochrome P450 3A4 (Homo sapiens, UniProt P08684); experiment: Inhibition of CYP3A4 in human liver microsomes assessed as reduction in formation of midazolam to 1-Hydroxy midazolam at 50 uM preincubated for 30 mins followed by substrate addition measured after 15 mins in presence of varying levels of NADPH by UPLC-MS analysis; assay type: ADME; settings: 0.25 h
T1 sequence (P08684 whole entry): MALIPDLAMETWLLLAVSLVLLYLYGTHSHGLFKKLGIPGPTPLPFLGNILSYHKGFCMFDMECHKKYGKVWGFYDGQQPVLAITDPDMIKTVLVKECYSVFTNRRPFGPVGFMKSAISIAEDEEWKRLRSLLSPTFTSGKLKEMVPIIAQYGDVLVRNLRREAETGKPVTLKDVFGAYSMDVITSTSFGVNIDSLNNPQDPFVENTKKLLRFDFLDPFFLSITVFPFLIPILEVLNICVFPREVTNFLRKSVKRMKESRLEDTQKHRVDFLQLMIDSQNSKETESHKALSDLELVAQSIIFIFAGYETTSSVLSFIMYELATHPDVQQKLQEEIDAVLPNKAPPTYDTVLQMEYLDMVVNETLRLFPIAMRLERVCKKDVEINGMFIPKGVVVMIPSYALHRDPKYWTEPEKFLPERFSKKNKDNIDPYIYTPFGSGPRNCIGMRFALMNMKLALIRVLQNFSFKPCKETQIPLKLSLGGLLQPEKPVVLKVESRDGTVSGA

Cytochrome P450 2C9 = Cytochrome P450 2C9 (Homo sapiens, UniProt P11712); experiment: Inhibition of CYP2C9 in human liver microsomes assessed as reduction in formation of tolbutamide to 4-Hydroxytolbutamide at 50 uM preincubated for 30 mins followed by substrate addition measured after 15 mins in presence of NADPH by UPLC-MS analysis; assay type: ADME; settings: 0.25 h
Sequence of Cytochrome P450 2C9 (P11712 whole entry): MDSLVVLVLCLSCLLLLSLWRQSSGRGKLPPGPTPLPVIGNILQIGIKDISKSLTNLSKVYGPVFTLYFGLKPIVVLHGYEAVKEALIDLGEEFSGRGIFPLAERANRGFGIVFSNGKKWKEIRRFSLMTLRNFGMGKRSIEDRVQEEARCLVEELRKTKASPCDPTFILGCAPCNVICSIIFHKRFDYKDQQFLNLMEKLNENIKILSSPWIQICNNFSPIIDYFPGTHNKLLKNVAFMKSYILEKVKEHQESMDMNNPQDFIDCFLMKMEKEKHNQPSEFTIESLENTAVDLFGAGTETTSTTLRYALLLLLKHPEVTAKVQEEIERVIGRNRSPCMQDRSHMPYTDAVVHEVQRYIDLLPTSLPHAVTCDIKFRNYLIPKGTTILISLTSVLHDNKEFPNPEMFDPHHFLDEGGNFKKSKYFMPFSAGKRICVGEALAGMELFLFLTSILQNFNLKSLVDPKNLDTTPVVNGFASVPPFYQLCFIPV

Cytochrome P450 2C19 = Cytochrome P450 2C19 (Homo sapiens, UniProt P33261); experiment: Inhibition of CYP2C19 in human liver microsomes assessed as reduction in formation of mephenytoin to 4-Hydroxy mephenytoin at 50 uM preincubated for 30 mins followed by substrate addition measured after 15 mins in presence of NADPH by UPLC-MS analysis; assay type: ADME; settings: 0.25 h
Sequence of Cytochrome P450 2C19 (P33261 whole entry): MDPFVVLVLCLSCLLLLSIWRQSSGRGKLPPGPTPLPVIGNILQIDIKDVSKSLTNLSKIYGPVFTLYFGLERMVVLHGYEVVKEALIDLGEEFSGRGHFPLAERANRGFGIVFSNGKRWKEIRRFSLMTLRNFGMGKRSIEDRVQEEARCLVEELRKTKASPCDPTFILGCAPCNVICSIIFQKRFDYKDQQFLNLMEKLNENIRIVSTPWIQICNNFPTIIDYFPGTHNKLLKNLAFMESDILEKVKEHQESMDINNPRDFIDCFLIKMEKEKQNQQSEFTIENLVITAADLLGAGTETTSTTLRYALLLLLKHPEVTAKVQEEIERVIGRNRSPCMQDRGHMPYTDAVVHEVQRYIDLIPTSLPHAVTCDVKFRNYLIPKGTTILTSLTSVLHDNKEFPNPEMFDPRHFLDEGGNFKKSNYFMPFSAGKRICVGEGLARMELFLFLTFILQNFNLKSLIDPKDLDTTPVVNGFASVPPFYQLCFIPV

Cytochrome P450 3A4 [2] = biological target: T1, Cytochrome P450 3A4; experiment: Drug metabolism in human liver microsomes assessed as CYP3A4-mediated metabolite formation at […] preincubated for 5 mins followed by NADPH addition measured after 2 hrs by UPLC-MS/MS analysis; assay type: ADME
Cytochrome P450 1A2 = biological target: T2, Cytochrome P450 1A2 (Homo sapiens, UniProt P05177); experiment: Inhibition of CYP1A2 in human liver microsomes assessed as reduction in formation of phenacetin to acetaminophen at 50 uM preincubated for 30 mins followed by substrate addition measured after 15 mins in presence of NADPH by UPLC-MS analysis; assay type: ADME; settings: 0.25 h
T2 sequence (P05177 whole entry): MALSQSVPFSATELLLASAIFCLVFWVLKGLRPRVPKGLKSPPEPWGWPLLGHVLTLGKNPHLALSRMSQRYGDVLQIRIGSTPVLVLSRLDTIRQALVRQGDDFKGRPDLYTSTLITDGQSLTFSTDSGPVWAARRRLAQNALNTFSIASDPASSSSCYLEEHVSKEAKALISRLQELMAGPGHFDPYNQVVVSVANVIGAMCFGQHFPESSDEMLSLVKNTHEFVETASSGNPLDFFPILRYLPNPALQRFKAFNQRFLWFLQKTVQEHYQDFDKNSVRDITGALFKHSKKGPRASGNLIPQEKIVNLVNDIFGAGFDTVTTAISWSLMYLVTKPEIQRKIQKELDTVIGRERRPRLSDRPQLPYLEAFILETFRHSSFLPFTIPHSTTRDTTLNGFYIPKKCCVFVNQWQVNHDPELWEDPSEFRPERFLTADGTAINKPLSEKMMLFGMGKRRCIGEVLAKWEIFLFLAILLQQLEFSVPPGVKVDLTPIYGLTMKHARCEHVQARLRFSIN

Cytochrome P450 3A4 [3] = biological target: T1, Cytochrome P450 3A4; experiment: Inhibition of CYP3A4 in human liver microsomes assessed as reduction in formation of midazolam to 1-Hydroxy midazolam at 50 uM preincubated for 30 mins followed by substrate addition measured after 15 mins in presence of NADPH by UPLC-MS analysis; assay type: ADME; settings: 0.25 h
Cytochrome P450 3A4 [4] = biological target: T1, Cytochrome P450 3A4; experiment: Inhibition of CYP3A4 in human liver microsomes assessed as reduction in formation of midazolam to 1-Hydroxy midazolam preincubated for 30 mins followed by substrate addition measured after 15 mins in presence of NADPH by UPLC-MS analysis; assay type: ADME; settings: 0.25 h
Cytochrome P450 3A4 [5] = biological target: T1, Cytochrome P450 3A4; experiment: Drug metabolism in human liver microsomes assessed as CYP3A4-mediated M2 metabolite formation at […] preincubated for 5 mins followed by NADPH addition measured after 2 hrs by UPLC-MS/MS analysis; assay type: ADME
[6] = Drug metabolism in human liver microsomes assessed as monohydroxy formation in presence of GSH and water by UPLC-MS/MS analysis; assay type: ADME, microsome
[7] = Retention time of the compound in human liver microsomes by UPLC-MS/MS analysis; assay type: ADME, microsome
Cytochrome P450 3A4 [8] = biological target: T1, Cytochrome P450 3A4; experiment: Drug metabolism in human liver microsomes assessed as CYP3A4-mediated M1 metabolite formation at […] preincubated for 5 mins followed by NADPH addition measured after 2 hrs by UPLC-MS/MS analysis; assay type: ADME

inhibition (INH) (Cytochrome P450 2E1)	inhibition (INH) (Cytochrome P450 2D6)	inhibition (INH) (Cytochrome P450 3A4 [1])	inhibition (INH) (Cytochrome P450 2C9)	inhibition (INH) (Cytochrome P450 2C19)	Drug metabolism (Cytochrome P450 3A4 [2])	inhibition (INH) (Cytochrome P450 1A2)	inhibition (INH) (Cytochrome P450 3A4 [3])	inhibition (INH) (Cytochrome P450 3A4 [4])	Drug metabolism (Cytochrome P450 3A4 [5])	Drug metabolism [6]	Retention_time [7]	Drug metabolism (Cytochrome P450 3A4 [8])	Compound
Not Active	Not Active	Active	Not Active	Not Active	–	Not Active	Active	Dose-dependent effect	Metabolite_Detected	Metabolite_Detected	10.55 min	Metabolite_Detected	CC(=O)OC[C@]12[C@H](OC(C)=O)[C@H](OC(C)=O)[C@@H]3[C@@H](OC(C)=O)[C@@]14O[C@@]3(C)COC(=O)c1cccnc1CC[C@@](C)(O)C(=O)O[C@@H]([C@H](OC(=O)c1ccoc1)[C@@H]2OC(C)=O)[C@]4(C)O
Not Active	Not Active	Not Active	Not Active	Not Active	Metabolite_Notdetected	Not Active	Active	–	–	–	–	–	CC(=O)OC[C@]12[C@H](OC(C)=O)[C@H](OC(C)=O)[C@@H]3[C@@H](OC(C)=O)[C@@]14O[C@@]3(C)COC(=O)c1cccnc1CCC(C)C(=O)O[C@@H]([C@H](OC(=O)c1ccoc1)[C@@H]2OC(C)=O)[C@]4(C)O (stereo not given in full)

Second part, the compound before the results:

Compound	inhibition (INH) (Cytochrome P450 2E1)	inhibition (INH) (Cytochrome P450 2D6)	inhibition (INH) (Cytochrome P450 3A4 [1])	inhibition (INH) (Cytochrome P450 2C9)	inhibition (INH) (Cytochrome P450 2C19)	Drug metabolism (Cytochrome P450 3A4 [2])	inhibition (INH) (Cytochrome P450 1A2)	inhibition (INH) (Cytochrome P450 3A4 [3])	inhibition (INH) (Cytochrome P450 3A4 [4])	Drug metabolism (Cytochrome P450 3A4 [5])	Drug metabolism [6]	Retention_time [7]	Drug metabolism (Cytochrome P450 3A4 [8])
CC(=O)OC[C@@]12[C@H](OC(C)=O)[C@H](OC(C)=O)[C@@H]3[C@@H](OC(C)=O)[C@@]14O[C@@]3(C)COC(=O)c1cccnc1[C@@H](C)[C@H](C)C(=O)O[C@@H]([C@H](OC(C)=O)[C@@H]2OC(C)=O)[C@]4(C)O	Not Active	Not Active	Not Active	Not Active	Not Active	Metabolite_Notdetected	Not Active	Active	–	–	–	–	–
CC(=O)OC[C@]12[C@H](OC(C)=O)[C@H](OC(C)=O)[C@@H]3[C@@H](OC(C)=O)[C@@]14O[C@@]3(C)COC(=O)c1cccnc1CC[C@H](C)C(=O)O[C@@H]([C@H](OC(=O)c1ccccc1)[C@@H]2OC(C)=O)[C@]4(C)O	Active	Active	–	Active	Active	–	Active	Active	–	–	–	–	–
CC(=O)OC[C@]12[C@H](OC(C)=O)[C@H](OC(C)=O)[C@@H]3[C@@H](OC(C)=O)[C@@]14O[C@@]3(C)COC(=O)c1cccnc1CC[C@@](C)(O)C(=O)O[C@@H]([C@H](OC(=O)c1ccccc1)[C@@H]2OC(C)=O)[C@]4(C)O	Active	Active	–	Active	Active	–	Active	Active	–	–	–	–	–
